Assay results published in patent publication US20130274258A1, “CARBAZOLE AND CARBOLINE DERIVATIVES, AND PREPARATION AND THERAPEUTIC APPLICATIONS THEREOF” (PHILIP MORRIS PRODUCTS S.A., priority 2010, published 2013).
Where two headings read alike, the source gives them in different places. Each block holds one compound with its values, some of them ahead of it.

How the values were obtained:
caspase 3 and 7 = experiment: Apoptosis induction in Jurkat cells, caspase 3 and 7 assay; format: cell-based; conditions: for IC50: Homo sapiens, Jurkat cells, caspase 3/7 assay
Description: Compounds were assessed for their ability to induce apoptosis of Jurkat cells at 2 and 10 micromolar after 4 and 22 hours.
In order to firmly establish that the compounds of the invention cause cytotoxicity through apoptosis, IC50 of five compounds of the invention, doxorubicin and staurosporin were determined in the caspase assays; results are presented in Table 2. Importantly, the IC50 determined in the Alamar Blue and in the caspase assays were largely overlapping.

Jurkat cells = experiment: Jurkat cell viability, resazurin (Alamar Blue) assay; format: cell-based; conditions: for IC50: Homo sapiens
Description: The compounds were tested for pharmacological activity. In each of the tests, each compound was tested at […] in duplicates. […] The percentage of response relative to the DMSO control was then calculated for the mean value of the duplicates of each test. The values of the three tests were finally averaged and the standard deviations calculated.
Jurkat cells (10'000 cells/well) were incubated in the presence of various concentrations of compounds, doxorubicin or staurosporine. Twenty-two hours later, cells were incubated with resazurin (20 μg/ml) for 4 hours and fluorescence was measured at 590 nm.

colon carcinoma HCT116 = experiment: Xenograft model in nude mice, colon carcinoma HCT116; format: in vivo, human; conditions: reference compound
Description: (§1) The compounds of the invention were evaluated in human tumor xenograft mouse models. Nude mice were subcutaneously implanted with tumor cells (melanoma A2058, colon carcinoma HCT116, fibrosarcoma HT1080 and acute myelocytic leukemia MV114) and when the tumor reached a volume of about 100-150 mm^3, treatment was initiated. Tumor growth was followed over time until tumor volume reached 1000-1500 mm^3 or up to 60 days. An example of how tumor developed over time when the animals were administered or not with E3 three times once a week (qwk×3) is presented in FIG. 7. […]

[1] = Solubilization in intravenous formulation; format: physicochemical; conditions: 5% Cremophor and 5% ethanol in water
Description: This formulation was then used for the subsequent animal studies (maximal tolerated dose, pharmacokinetics and efficacy in cancer models).

purified porcine tubulin = purified porcine tubulin (Sus scrofa, UniProt P02550+P02554); experiment: Inhibition of 3H-labeled colchicine binding to purified tubulin, scintillation proximity assay; conditions: graded doses
Description: A series of compounds according to the invention and C14 vincristine and colchicine were tested for their capacity to inhibit ^3H-labeled colchicine binding to purified tubulin. Briefly, a limiting amount of tritium-labeled colchicine and graded doses of test compounds were added to purified porcine tubulin. After an incubation period, radioactivity associated with tubulin was determined using a scintillation proximity assay. […] By showing that these compounds interact with the colchicine binding site, it differentiates them from the tubulin inhibitors of the Vinca alkaloid- and taxane-types. The results also indicate that the compounds of the invention can be used in combination with the Vinca alkaloid- and taxane-types of tubulin inhibitors since they bind to a different aspect of tubulin, and likely affect tubulin polymerization via a different mechanism. The results also indicate that the compounds of the invention can be used even in patients who are refractory or non-responsive to other tubulin inhibitors, such as the tubulin inhibitors of the Vinca alkaloid- and taxane-types.

fibrosarcoma HT1080 = experiment: Xenograft model in nude mice, fibrosarcoma HT1080; format: in vivo, human; conditions: reference compound
Description: as §1

[2] = test system: acute myelocytic leukemia MV114; experiment: Xenograft model in nude mice, acute myelocytic leukemia MV114; format: in vivo, human; conditions: reference compound
Description: as §1

melanoma A2058 = experiment: Xenograft model in nude mice, melanoma A2058; format: in vivo, human; conditions: reference compound
Description: as §1

[3] = Pharmacokinetics after intravenous injection, plasma concentration; format: in vivo; conditions: mice, intravenous, after four hours
Description: The pharmacokinetics of E3 and E35 were investigated. Mice intravenously injected with 15 mg/kg of E3 were bled after 0, 1, 5, 10, 20, 30, 60, 120 and 480 minutes. […] For E35, mice intravenously injected with 30 mg/kg of […] were bled after 0, 1, 5, 10, 20, 30, 60, 120 and 480 minutes. […] Concentration then decreased steadily over the 8 hours of the study. During the first four hours after injection, circulating concentrations of E3 and E35 were found largely similar.

[4] = Jurkat cells, 22 h then resazurin 4 h, three experiments in duplicates, read-out: IC50
[5] = Jurkat cells, 22 h then resazurin 4 h, three experiments in duplicates

Sequence of purified porcine tubulin (P02554 whole entry): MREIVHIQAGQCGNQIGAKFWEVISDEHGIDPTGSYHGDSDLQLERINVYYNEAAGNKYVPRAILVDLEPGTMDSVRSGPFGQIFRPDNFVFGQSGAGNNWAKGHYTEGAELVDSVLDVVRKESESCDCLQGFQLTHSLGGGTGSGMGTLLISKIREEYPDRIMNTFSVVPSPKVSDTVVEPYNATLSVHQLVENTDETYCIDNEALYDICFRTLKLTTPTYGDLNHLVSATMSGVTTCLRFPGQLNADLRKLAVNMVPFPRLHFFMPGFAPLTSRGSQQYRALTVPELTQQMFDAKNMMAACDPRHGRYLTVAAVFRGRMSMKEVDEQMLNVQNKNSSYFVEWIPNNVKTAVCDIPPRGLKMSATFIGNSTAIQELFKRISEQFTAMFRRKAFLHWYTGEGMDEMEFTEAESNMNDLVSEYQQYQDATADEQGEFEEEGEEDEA
Sequence of purified porcine tubulin (P02550 whole entry): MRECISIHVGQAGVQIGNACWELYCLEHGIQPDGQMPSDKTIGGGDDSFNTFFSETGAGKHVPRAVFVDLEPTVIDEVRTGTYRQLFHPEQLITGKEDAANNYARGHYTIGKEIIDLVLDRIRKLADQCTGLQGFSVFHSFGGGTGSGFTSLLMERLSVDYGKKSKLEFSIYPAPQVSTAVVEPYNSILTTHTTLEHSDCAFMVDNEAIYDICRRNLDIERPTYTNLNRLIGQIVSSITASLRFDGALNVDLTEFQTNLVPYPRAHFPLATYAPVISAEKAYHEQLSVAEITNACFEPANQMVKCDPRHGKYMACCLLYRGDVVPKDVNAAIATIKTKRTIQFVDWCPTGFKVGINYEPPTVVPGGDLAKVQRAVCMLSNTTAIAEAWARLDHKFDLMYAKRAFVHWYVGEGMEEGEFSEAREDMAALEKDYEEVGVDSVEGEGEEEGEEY

Compound: CCc1c2c(nc3ccc(OC(=O)N4CCC(N5CCCCC5)CC4)cc13)-c1cc3c(c(=O)n1C2)COC(=O)[C@]3(O)CC [Irinotecan, reference compound]
Control with reference compound and days to study endpoint (colon carcinoma HCT116): not reached by day 58 days

Compound: CCc1nccc2c1[nH]c1ccc(-c3cccc(NS(C)(=O)=O)c3)cc12 [Example E44, N-(3-(1-ethyl-9H-pyrido[3,4-b]indol-6-yl)phenyl)methanesulfonamide]
suitability of the formulation [1]: adequate
IC50 (Jurkat cells; Jurkat): 90 nM
inhibition of 3H-labeled colchicine binding to tubulin (purified porcine tubulin): inhibited binding of colchicine

Compound: CC(=O)O[C@@]12CO[C@@H]1C[C@H](O)[C@@]1(C)C(=O)[C@H](O)C3=C(C)[C@@H](OC(=O)[C@H](O)[C@@H](NC(=O)OC(C)(C)C)c4ccccc4)C[C@@](O)([C@@H](OC(=O)c4ccccc4)[C@H]21)C3(C)C [Docetaxel, reference compound]
Control with reference compound and days to study endpoint (fibrosarcoma HT1080): not reached by day 58 days

Compound: CC[C@]1(O)C[C@@H]2CN(CCc3c([nH]c4ccccc34)[C@@](C(=O)OC)(c3cc4c(cc3OC)N(C)[C@H]3[C@@](O)(C(=O)OC)[C@H](OC(C)=O)[C@]5(CC)C=CCN6CC[C@]43[C@@H]65)C2)C1 [Vinblastine, reference compound]
Control with reference compound and days to study endpoint [2]: not reached by day 58 days
Control with reference compound and days to study endpoint (melanoma A2058): Vinblastine, 45 days

Compound: COc1cc(-c2ccc3[nH]c4c(C)nccc4c3c2)cc(OC)c1OC [Example C14]
IC50 (Jurkat cells; [4]): > 10000 nM
inhibition of 3H-labeled colchicine binding to tubulin (purified porcine tubulin): did not inhibit colchicine binding

Compound: Cc1nccc2c1[nH]c1ccc(-c3cccnc3)cc12 [Example E25, 6-(pyridine-3-yl)-1-methyl-9H-pyrido[3,4-b]indole]
caspase 3 and 7 activity compared to solvent control (%) (caspase 3 and 7; 2 μM after 4 h): −0.6%
caspase 3 and 7 activity compared to solvent control (%) (caspase 3 and 7; 2 μM after 22 h): 624.4%
caspase 3 and 7 activity compared to solvent control (%) (caspase 3 and 7; 10 μM after 4 h): 18.7%
caspase 3 and 7 activity compared to solvent control (%) (caspase 3 and 7; 10 μM after 22 h): 405.7%
IC50 (Jurkat cells; [4]): 602 nM

Compound: Cc1nccc2c1[nH]c1ccc(-c3ccc4c(c3)CCO4)cc12 [Example E29, 6-(2,3-dihydrobenzofuran-5-yl)-1-methyl-9H-pyrido[3,4-b]indole]
IC50 (caspase 3 and 7): 0.128 µM
IC50 (Jurkat cells; [4]): 64 nM

Compound: CCOc1ccc(F)c(-c2ccc3[nH]c4c(C)nccc4c3c2)c1 [Example E7, 6-(5-ethoxy-2-fluorophenyl)-1-methyl-9H-pyrido[3,4-b]indole]
caspase 3 and 7 activity compared to solvent control (%) (caspase 3 and 7; 2 μM after 4 h): −7.6%
caspase 3 and 7 activity compared to solvent control (%) (caspase 3 and 7; 2 μM after 22 h): 616.1%
caspase 3 and 7 activity compared to solvent control (%) (caspase 3 and 7; 10 μM after 4 h): −10.2%
caspase 3 and 7 activity compared to solvent control (%) (caspase 3 and 7; 10 μM after 22 h): 548.1%
IC50 (Jurkat cells; [4]): 775 nM

Compound: Cc1nccc2c1[nH]c1ccc(-c3cccc(C(=O)NCCO)c3)cc12 [Example E48, N-(2-hydroxyethyl)-3-(1-methyl-9H-pyrido[3,4-b]indol-6-yl)benzamide]
IC50 (Jurkat cells; [4]): 627 nM

Compound: CCc1nccc2c1[nH]c1ccc(-c3cccc(C(N)=O)c3)cc12 [Example E35, 6-(3-aminocarbonylphenyl)-1-ethyl-9H-pyrido[3,4-b]indole]
circulating concentration compared with E3 [3]: substantially lower circulating concentration than E3
suitability of the formulation [1]: adequate
IC50 (Jurkat cells; Jurkat): 4 nM
inhibition of 3H-labeled colchicine binding to tubulin (purified porcine tubulin): inhibited binding of colchicine

Compound: Cc1nccc2c1[nH]c1ccc(-c3ccc(C=O)o3)cc12 [Example E31, 6-(5-formylfuran-2-yl)-1-methyl-9H-pyrido[3,4-b]indole]
IC50 (Jurkat cells; [4]): 2290 nM

Compound: Cc1nccc2c3cc(-c4ccc5c(c4)CCO5)ccc3n(C)c12 [Example E51, 6-(2,3-dihydrobenzofuran-5-yl)-1,9-dimethyl-9H-pyrido[3,4-b]indole]
IC50 (Jurkat cells; [4]): 9 nM

Compound: FC(F)(F)c1nccc2c1[nH]c1ccc(-c3ccc4c(c3)CCO4)cc12 [Example E36, 6-(2,3-dihydrobenzofuran-5-yl)-1-trifluoromethyl-9H-pyrido[3,4-b]indole]
IC50 (Jurkat cells; [4]): 96 nM

Compound: Cc1nccc2c1[nH]c1ccc(-c3cccc(-c4ccco4)c3)cc12 [Example E55, 6-(3-(furan-2-yl)phenyl)-1-methyl-9H-pyrido[3,4-b]indole]
IC50 (Jurkat cells; [4]): 2200 nM

Compound: CCc1nccc2c1[nH]c1ccc(-c3ccc4c(c3)CCO4)cc12 [Example E37, 6-(2,3-dihydrobenzofuran-5-yl)-1-ethyl-9H-pyrido[3,4-b]indole]
IC50 (Jurkat cells; [4]): 4 nM

Continued, in another order:

IC50 (caspase 3 and 7): 0.108 µM
IC50 (Jurkat cells; [4]): 104 nM
Compound: Cc1nccc2c1[nH]c1ccc(-c3cccc(Cl)c3)cc12 [Example E2, 6-(3-chlorophenyl)-1-methyl-9H-pyrido[3,4-b]indole]

IC50 (caspase 3 and 7): 0.061 µM
IC50 (Jurkat cells; [4]): 47 nM
Compound: Cc1nccc2c1[nH]c1ccc(-c3cccc(C#N)c3)cc12 [Example E21, 6-(3-cyanophenyl)-1-methyl-9H-pyrido[3,4-b]indole]

IC50 (caspase 3 and 7): 0.215 µM
IC50 (Jurkat cells; [4]): 137 nM
Compound: COc1cccc(-c2ccc3[nH]c4c(C)nccc4c3c2)c1 [Example E9, 6-(3-methoxyphenyl)-1-methyl-9H-pyrido[3,4-b]indole]

IC50 (Jurkat cells; [4]): 1260 nM
Compound: Cc1nccc2c1[nH]c1ccc(-c3cccc(C(F)(F)F)c3)cc12 [Example E6, 6-(3-(trifluoromethyl)phenyl)-1-methyl-9H-pyrido[3,4-b]indole]
caspase 3 and 7 activity compared to solvent control (%) (caspase 3 and 7; 2 μM after 4 h): 9.2%
caspase 3 and 7 activity compared to solvent control (%) (caspase 3 and 7; 2 μM after 22 h): 482.6%
caspase 3 and 7 activity compared to solvent control (%) (caspase 3 and 7; 10 μM after 4 h): 11.2%
caspase 3 and 7 activity compared to solvent control (%) (caspase 3 and 7; 10 μM after 22 h): 585.1%

IC50 (Jurkat cells; [4]): 413 nM
Compound: Cc1nccc2c1[nH]c1ccc(-c3ccccc3)cc12 [Example E1, 6-phenyl-1-methyl-9H-pyrido[3,4-b]indole]
caspase 3 and 7 activity compared to solvent control (%) (caspase 3 and 7; 2 μM after 4 h): −8.5%
caspase 3 and 7 activity compared to solvent control (%) (caspase 3 and 7; 2 μM after 22 h): 618.5%
caspase 3 and 7 activity compared to solvent control (%) (caspase 3 and 7; 10 μM after 4 h): −10.0%
caspase 3 and 7 activity compared to solvent control (%) (caspase 3 and 7; 10 μM after 22 h): 535.9%

IC50 (Jurkat cells; [4]): 850 nM
Compound: Cc1nccc2c1[nH]c1ccc(-c3cccc(CN(C)C)c3)cc12 [Example E42, N,N-dimethyl-1-(3-(1-methyl-9H-pyrido[3,4-b]indol-6-yl)phenyl)methanamine]

IC50 (Jurkat cells; [4]): 968 nM
Compound: Cc1nccc2c1[nH]c1ccc(-c3cc(C#N)ccc3F)cc12 [Example E24, 6-(5-cyano-2-fluorophenyl)-1-methyl-9H-pyrido[3,4-b]indole]

IC50 (μM) (Jurkat cells; [5]): not active
Compound: Cc1nccc2c1[nH]c1ccc(-c3cccc(C(=O)O)c3)cc12 [Example C6, 6-(3-carboxyphenyl)-1-methyl-9H-pyrido[3,4-b]indole]

IC50 (Jurkat cells; [4]): 5000 nM
Compound: Cc1nccc2c1[nH]c1ccc(-c3ccc(C#N)cc3)cc12 [Example E22, 6-(4-cyanophenyl)-1-methyl-9H-pyrido[3,4-b]indole]

IC50 (μM) (Jurkat cells; [5]): not active
Compound: Cc1nccc2c1[nH]c1ccc(-c3cccc(CC(=O)O)c3)cc12 [Example C7, 6-(3-carboxymethylphenyl)-1-methyl-9H-pyrido[3,4-b]indole]
